Reference: patent publication US20240165114A1, “TREATMENT OF DIABETIC NEPHROPATHY WITH AN sGC STIMULATOR” (Cyclerion Therapeutics, Inc., priority 2019, published 2024)

Assays:
[1] = Plasma IW-1973 concentrations / population PK in the Phase 2 study; type: in vivo, human
Method: Plasma IW-1973 concentrations were measured for pharmacokinetic determinations.
The population PK approach based on sparse PK data was used to determine exposure (AUC) and oral clearance (CL/F) of IW-1973. Influence of patient demographics (eg, age, race) on exposure was evaluated. In addition, exposure-effect (such as hemodynamic, exploratory biomarkers, efficacy, and safety parameters) relationships were explored. Effects of concomitant medications on IW-1973 PK was also evaluated.
Praliciguat concentrations were measured using a validated liquid chromatography tandem mass spectrometry method, as previously described (Hanrahan J P, et al. “A Randomized, Placebo-Controlled, Multiple-Ascending-Dose Study to Assess the Safety, Tolerability, Pharmacokinetics, and Pharmacodynamics of the Soluble Guanylate Cyclase Stimulator Praliciguat in Healthy Subjects” Clin Pharmacol Drug Dev. 2019, 8(5):564-575). Population PK analysis was performed using NONMEM 7.4 (Icon Development Solutions, Ellicott City, MD) to update an existing model established with data from three Phase 1 studies in healthy subjects and two phase 2a studies in patients with stable type 2 diabetes mellitus (T2D) and hypertension. The influence of patient demographics, renal function and concomitant medications on exposure were evaluated, and estimates of exposure (AUC) and oral clearance (CL/F) were determined.

[2] = tested on: adult patients with type 2 diabetes mellitus with albuminuria; assay: Phase 2 study: hemoglobin A1c; type: in vivo, human; conditions: for Hemoglobin A1c: Between PRL and PBO Group LS Mean Change from Baseline at week 12 / Hemoglobin A1c: Within Group LS Mean Change from Baseline at Week 12: ITT
From the text: Other secondary objectives of this clinical study included the evaluation of the pharmacokinetic (PK) concentrations of oral IW-1973 and the exploration of the effect of oral IW-1973 on hemodynamics and metabolic effects when administered daily for approximately 12 weeks to adult patients with type 2 diabetes mellitus with albuminuria (i.e., DN patients) who were on a stable regimen of renin-angiotensin system inhibitors (RAAS inhibitors, i.e., ACEi's and ARBs).
Clinical laboratory assessments obtained during the performance of this clinical trial included: complete blood count, serum chemistry panel, urinalysis, coagulation panel, estimated glomerular filtration rate (eGFR; determined by the Chronic Kidney Disease Epidemiology Collaboration [CKD-EPI] creatinine equation), hemoglobin A1c (HbA1C), Homeostatic Model Assessment to estimate insulin resistance (HOMA-IR), platelet function assessment (using VerifyNow®, at a subset of sites), urine pregnancy, and screens for hepatitis, human immunodeficiency virus, and drugs of abuse.
This multicenter, randomized, double-blind, placebo-controlled, parallel-group study evaluated 2 dose levels of IW-1973 compared with placebo. The study population consisted of adult patients with type 2 diabetes mellitus, albuminuria, and impaired renal function. Patients had to have been taking antihyperglycemic medications for at least 12 weeks with their regimen being stable (ie, drug and dose) for at least 28 days before the Randomization Visit. Additionally, patients had to have been on a stable regimen of angiotensin-converting enzyme inhibitor (ACEi) or an angiotensin receptor blocker (ARB), for at least 28 days before the Randomization Visit. For more details, see Inclusion Criteria below. A total of 156 patients (approximately 50 patients per arm) were stratified by baseline estimated glomerular filtration rate (eGFR) into three groups: eGFR 30 to 45, >45 to 60, and >60 to 75 mL/min/1.73 m^2) and randomized approximately 1:1:1 to total daily 20 mg IW-1973, 40 mg IW-1973, or placebo.

plasma exposure versus dose ([1]; 20 mg and 40 mg total daily oral dose): dose-proportional exposure
time to steady state of plasma concentrations ([1]; daily oral dosing): ≤ 4 weeks
route of elimination (renal excretion) ([1]; metabolized in the liver): negligible renal excretion
Compound: OC(CNc1nc(-c2cc(-c3ccon3)n(Cc3ccccc3F)n2)ncc1F)(C(F)(F)F)C(F)(F)F [Compound I, praliciguat]
decrease in mean HbA1c levels compared to placebo ([2]; 12 weeks of treatment): ~0.3%
Hemoglobin A1c: Between PRL and PBO Group LS Mean Change from Baseline at week 12 ([2]; PRL 20 mg): −0.23%
Hemoglobin A1c: Within Group LS Mean Change from Baseline at Week 12 ([2]; PRL 20 mg): −0.26%
Hemoglobin A1c: Between PRL and PBO Group LS Mean Change from Baseline at week 12 ([2]; PRL 40 mg): −0.30%
Hemoglobin A1c: Within Group LS Mean Change from Baseline at Week 12 ([2]; PRL 40 mg): −0.38%
Hemoglobin A1c: Between PRL and PBO Group LS Mean Change from Baseline at week 12 ([2]; PRL Combined): −0.27%
Hemoglobin A1c: Within Group LS Mean Change from Baseline at Week 12 ([2]; PRL Combined): −0.34%
